Results published in patent publication US20250270221A1, “SOLID FORMS OF JAK INHIBITOR AND PROCESS OF PREPARING THE SAME” (Incyte Corporation, priority 2022, published 2025).

Columns and labels:
Format in all cases: physicochemical
[1] = Dynamic vapor sorption (DVS Intrinsic, Method D, not dried); design: Hysteresis: unit not given here
Method: The samples were not dried prior to analysis. Sorption and desorption data were collected from 5% to 95% RH in 10% RH increments under a nitrogen purge. The equilibrium criteria used for the analyses were 0.001 dm/dt weight change in 5 minutes with a minimum step time of 30 minutes and maximum equilibration time of 180 minutes with a 3 minute data logging interval. Data were not corrected for the initial moisture content of the sample.

[2] = Aqueous solubility of crystalline ruxolitinib di-hydrate; settings: 20 °C, thermodynamic from solid, 20-25° C.
[3] = Solubility of crystalline ruxolitinib di-hydrate in organic solvents; settings: for solubility: organic solvent or mixture, thermodynamic from solid
Text: The resulting ruxolitinib free base readily dissolved in the organic solvents.

[4] = Dynamic vapor sorption (VTI-SA+, sample pre-dried at 60° C.)
Method: The DVS experiment was performed on a VTI-SA+ Vapor Sorption Analyzer from TA Instruments. […] Then the humidity was cycled from 5% RH to 95% RH (adsorption) and back to 5% RH (desorption) with 5% RH interval at a constant temperature of 25° C. The equilibration criteria were 0.010 wt % in 5 minutes with a maximum equilibration time of 180 minutes per step.

[5] = Relative humidity testing (physical stability, XRPD)
Text: Ruxolitinib di-hydrate was held at select relative humidities to help determine range of physical stability (see table below). The d-hydrate was transferred to a vial, which was then uncapped and placed inside a jar, for a designated time period, containing a saturated aqueous salt solution: […]

[6] = Water activity slurry experiments (XRPD of solid phase); settings: 20 d
Method: Limited water activity slurries were conducted utilizing ruxolitinib di-hydrate (see table below). The effect of water activity (aw) on the hydration state of the di-hydrate was investigated through competitive water activity trituration experiments (slurries) in various aqueous solvent mixtures. The resulting solid phase was characterized by XRPD. […] Water activity is also related to relative humidity in that RH %=aw×100. Therefore, it is possible to directly relate the stability of an anhydrous/hydrate system in slurry experiments to solid-state stability. […] The method is particularly valuable when relatively slow kinetics of conversion in the solid state prevents reaching true equilibrium in a reasonable timeframe, since solvent-mediated transformation accelerates the conversion process.

[7] = Dehydration of ruxolitinib di-hydrate (resulting solid form)
Text: Dehydration of ruxolitinib di-hydrate results in the isolation of anhydrous crystalline ruxolitinib free base (Form I) (see table below). Form I is described in more detail in Example 15.

[8] = Target RH 95.0%, sample RH 95.8%
[9] = Target RH 95.0%, sample RH 94.0%

## N#CC[C@H](C1CCCC1)n1cc(-c2ncnc3[nH]ccc23)cn1 [Form I, (R)-3-(4-(7H-pyrrolo[2,3-d]pyrimidin-4-yl)-1H-pyrazol-1-yl)-3-cyclopentylpropanenitrile]
[1]; DVS Method D
  Hygroscopicity: hygroscopic
[1]; Target RH 5.0%, sample RH 5.1%
  Desorp Mass Change: 5.04%
[1]; Target RH 5.0%, sample RH 5.4%
  Sorp Mass Change: 0.00%
[1]; Target RH 15.0%
  Hysteresis: 9.78
[1]; Target RH 15.0%, sample RH 15.6%
  Sorp Mass Change: 0.06%
[1]; Target RH 15.0%, sample RH 16.1%
  Desorp Mass Change: 9.84%
[1]; Target RH 25.0%
  Hysteresis: 9.94
[1]; Target RH 25.0%, sample RH 25.4%
  Sorp Mass Change: 0.11%
[1]; Target RH 25.0%, sample RH 25.9%
  Desorp Mass Change: 10.05%
[1]; Target RH 35.0%
  Hysteresis: 10.06
[1]; Target RH 35.0%, sample RH 35.4%
  Sorp Mass Change: 0.15%
[1]; Target RH 35.0%, sample RH 36.0%
  Desorp Mass Change: 10.21%
[1]; Target RH 45.0%
  Hysteresis: 10.16
[1]; Target RH 45.0%, sample RH 45.5%
  Sorp Mass Change: 0.19%
[1]; Target RH 45.0%, sample RH 46.1%
  Desorp Mass Change: 10.35%
[1]; Target RH 55.0%
  Hysteresis: 10.21
[1]; Target RH 55.0%, sample RH 55.3%
  Sorp Mass Change: 0.26%
[1]; Target RH 55.0%, sample RH 56.1%
  Desorp Mass Change: 10.47%
[1]; Target RH 65.0%
  Hysteresis: 4.28
[1]; Target RH 65.0%, sample RH 65.5%
  Sorp Mass Change: 6.30%
[1]; Target RH 65.0%, sample RH 66.2%
  Desorp Mass Change: 10.58%
[1]; Target RH 75.0%
  Hysteresis: 3.65
[1]; Target RH 75.0%, sample RH 75.3%
  Sorp Mass Change: 7.04%
[1]; Target RH 75.0%, sample RH 76.3%
  Desorp Mass Change: 10.68%
[1]; Target RH 85.0%
  Hysteresis: 0.79
[1]; Target RH 85.0%, sample RH 86.1%
  Sorp Mass Change: 10.00%
[1]; Target RH 85.0%, sample RH 89.4%
  Desorp Mass Change: 10.79%
[1]; [8]
  Desorp Mass Change: 10.83%
  Sorp Mass Change: 10.83%
[1]; desorption from 15 to 5% RH
  Additional weight loss: 4.8%
[1]; desorption from 95 to 15% RH
  Weight loss: 1%
[1]; from 5 to 55% RH
  Weight gain: 0.26%
[1]; from 55 to 95% RH
  Weight gain: 10.6%
[1]; less crystalline than the starting material
  Solid form of post DVS sample: Form I

## N#CC[C@H](C1CCCC1)n1cc(-c2ncnc3[nH]ccc23)cn1 [Ruxolitinib Di-hydrate, (R)-3-(4-(7H-pyrrolo[2,3-d]pyrimidin-4-yl)-1H-pyrazol-1-yl)-3-cyclopentylpropanenitrile di-hydrate]
[2]; aqueous buffer, pH 6.0 (PBS)
  solubility: 17.4 µg/mL
[2]; aqueous buffer, pH 6.5 (PBS)
  solubility: 106 µg/mL
[2]; aqueous buffer, pH 7.0 (PBS)
  solubility: 101 µg/mL
[2]; aqueous buffer, pH 7.4 (PBS)
  solubility: 100 µg/mL
[2]; fassif, FeSSIF (pH 6.5)
  solubility: 112 µg/mL
[2]; saline or isotonic, Saline (pH 5.5)
  solubility: 105 µg/mL
[2]; simulated gastric fluid, 0.1N HCl
  solubility: > 10700 µg/mL
[2]; simulated gastric fluid, SGF (pH 1.6)
  solubility: > 11000 µg/mL
[2]; FeSSIF (pH 5.0)
  solubility: 419 µg/mL
[2]; Water
  solubility: 111 µg/mL
[2]; HCl solution, simulated gastric fluid, pH 2.0 (HCl)
  solubility: 3470 µg/mL
[2]; KHP buffer, aqueous buffer, pH 3.0 (KHP)
  solubility: 1570 µg/mL
[2]; KHP buffer, aqueous buffer, pH 5.5 (KHP)
  solubility: 107 µg/mL
[2]; KPH buffer (so in the source), aqueous buffer, pH 4.0 (KPH)
  solubility: 362 µg/mL
[2]; acetate buffer, aqueous buffer, pH 5.5 (Acetate)
  solubility: 93.5 µg/mL
[2]; aqueous KHP solution, aqueous buffer, pH 5.0 (KHP)
  solubility: 147 µg/mL
[2]; aqueous acetate solution, aqueous buffer, pH 4.0 (Acetate)
  solubility: 186 µg/mL
[2]; aqueous acetate solution, aqueous buffer, pH 5.0 (Acetate)
  solubility: 296 µg/mL
[2]; borate buffer, aqueous buffer, pH 8.5 (Borate)
  solubility: 112 µg/mL
[3]; acetone
  solubility: > 500000 µg/mL
[3]; ethyl acetate
  solubility: > 200000 µg/mL
[3]; Ethanol (EtOH)
  solubility: > 500000 µg/mL
[3]; Isopropanol (IPA)
  solubility: > 500000 µg/mL
[3]; Methanol (MeOH)
  solubility: > 500000 µg/mL
[3]; polar organic solvents
  Behaviour of the hydrate in polar solvents: lost crystalline water
[4]; 60° C. under dry N2 (0% RH) for 1 h
  Solid form after pre-dried step: dehydrated to form amorphous ruxolitinib free base
[4]; after cycle 5% RH to 95% RH and back to 5% RH, 25° C.
  Solid form after DVS (XRPD): crystalline ruxolitinib di-hydrate
[4]; at 95% RH, 25° C., after pre-drying at 60° C.
  Water re-adsorbed: 9.6%
[1]; Target RH 5.0%, sample RH 4.8%
  Sorp Mass Change: 0.0013%
[1]; Target RH 5.0%, sample RH 5.6%
  Desorp Mass Change: 0.0334%
[1]; Target RH 15.0%
  Hysteresis: 0.0528
[1]; Target RH 15.0%, sample RH 15.1%
  Sorp Mass Change: 0.0412%
[1]; Target RH 15.0%, sample RH 17.1%
  Desorp Mass Change: 0.0940%
[1]; Target RH 25.0%
  Hysteresis: 0.0461
[1]; Target RH 25.0%, sample RH 25.0%
  Sorp Mass Change: 0.0707%
[1]; Target RH 25.0%, sample RH 25.8%
  Desorp Mass Change: 0.1168%
[1]; Target RH 35.0%
  Hysteresis: 0.0399
[1]; Target RH 35.0%, sample RH 35.0%
  Sorp Mass Change: 0.0904%
[1]; Target RH 35.0%, sample RH 35.9%
  Desorp Mass Change: 0.1302%
[1]; Target RH 45.0%
  Hysteresis: 0.0378
[1]; Target RH 45.0%, sample RH 45.1%
  Sorp Mass Change: 0.1069%
[1]; Target RH 45.0%, sample RH 46.0%
  Desorp Mass Change: 0.1447%
[1]; Target RH 55.0%
  Hysteresis: 0.0357
[1]; Target RH 55.0%, sample RH 55.1%
  Sorp Mass Change: 0.1214%
[1]; Target RH 55.0%, sample RH 56.0%
  Desorp Mass Change: 0.1572%
[1]; Target RH 65.0%
  Hysteresis: 0.0347
[1]; Target RH 65.0%, sample RH 65.1%
  Sorp Mass Change: 0.1359%
[1]; Target RH 65.0%, sample RH 66.0%
  Desorp Mass Change: 0.1706%
[1]; Target RH 75.0%
  Hysteresis: 0.0311
[1]; Target RH 75.0%, sample RH 74.9%
  Sorp Mass Change: 0.1561%
[1]; Target RH 75.0%, sample RH 76.6%
  Desorp Mass Change: 0.1872%
[1]; Target RH 85.0%
  Hysteresis: 0.0233
[1]; Target RH 85.0%, sample RH 84.8%
  Sorp Mass Change: 0.1882%
[1]; Target RH 85.0%, sample RH 87.6%
  Desorp Mass Change: 0.2115%
[1]; [9]
  Desorp Mass Change: 0.2343%
  Sorp Mass Change: 0.2343%
[1]; desorption 95 to 5% RH
  Weight lost upon desorption: 0.20%
[1]; from 5 to 95% relative humidity
  Weight gained: 0.23%
[5]; 0% RH, N2, RT, 1 d
  Result (solid form): Di-hydrate + Form I
[5]; 11% RH, RT, 2 d
  Result (solid form): Di-hydrate
[5]; 11% RH, RT, 14 d
  Result (solid form): Di-hydrate
[5]; 33% RH, RT, 2 d
  Result (solid form): Di-hydrate
[5]; 53% RH, RT, 2 d
  Result (solid form): Di-hydrate
[5]; 98% RH, RT, 2 d
  Result (solid form): Di-hydrate
[5]; 98% RH, RT, 4 d
  Result (solid form): Di-hydrate
[5]; during the time tested
  Relative humidity at which the di-hydrate form is physically stable: above 11 % RH
[5]; undetermined value, during the time tested
  Relative humidity of conversion to anhydrous crystalline free base form (Form I): below 11 % RH
[6]; 0.34 aw, 75:25 DMSO/H2O
  Result (solid form): Di-hydrate
[6]; 0.42 aw, 70:30 DMSO/H2O
  Result (solid form): Di-hydrate
[6]; 0.68 aw, 50:50 DMSO/H2O
  Result (solid form): Di-hydrate
[7]; 42° C. oven, 1 d
  Result (solid form): Di-
[7]; 50° C., vacuum oven, 1 d
  Result (solid form): Form I
[7]; 80° C./30 minutes
  Result (solid form): amorphous
[7]; 110° C./20 minutes
  Result (solid form): amorphous
[7]; P2O5 jar, RT, 4 d
  Result (solid form): Form I
[7]; P2O5 jar, RT, 5 d
  Result (solid form): Form I
[7]; P2O5 jar, RT, 13 d
  Result (solid form): conversion
[7]; P2O5 jar, RT, 21 d, di-hydrate crystals
  Result (solid form): Form I
[7]; RT, vacuum oven, 1 d
  Result (solid form): Form I
